Our source for the IC50 values is patent US7517889B2, “2,6-substituted-4-monosubstitutedamino-pyrimidine as prostaglandin D2 receptor antagonists” (Aventis Pharmaceuticals, Inc., priority 2004, dated 2009).

pIC50: −log10 of the molar value. Counter-ions that a name gives are not always drawn.

The assay addresses T1, DP receptor (Homo sapiens, UniProt Q13258).
T1 construct: the human cell line LS174T, which expresses the endogenous DP receptor; endogenous in cells; host or cells: LS174T human cell line
T1 sequence (Q13258 1-359): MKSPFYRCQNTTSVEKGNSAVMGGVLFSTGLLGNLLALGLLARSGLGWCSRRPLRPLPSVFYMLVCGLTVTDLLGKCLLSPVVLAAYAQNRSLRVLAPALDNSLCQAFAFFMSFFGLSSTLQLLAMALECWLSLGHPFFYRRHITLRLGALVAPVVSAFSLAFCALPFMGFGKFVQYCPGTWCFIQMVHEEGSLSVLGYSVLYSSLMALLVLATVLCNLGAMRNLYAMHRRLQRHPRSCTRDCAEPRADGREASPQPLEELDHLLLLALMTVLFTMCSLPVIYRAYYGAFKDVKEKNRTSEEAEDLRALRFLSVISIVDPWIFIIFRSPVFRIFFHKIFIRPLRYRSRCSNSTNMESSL
Description: SPA cAMP assay in human LS174 T cells (human DP functional assay). The settings on record: inhibition of PGD2 (15 nM final) stimulated cAMP, LS174T cells expressing endogenous DP receptor. It counts as cell-based. An outline of the steps:
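LS174T cells with endogenous DP receptor, 45,000/well seeded overnight, exposed to compounds at 11 points for 15 min at 37 °C in buffer containing IBMX, with PGD2 stimulation.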

Usually pIC50 stands for −log10 of the IC50, conventionally taken in molar units. A higher pIC50 goes with a small IC50. On to `COc1nc(NCC2OCCc3ccccc32)cc(-c2cccc(C(C)(C)C(=O)O)c2)n1` (centres unmarked) [Example 91, 2-(3-{6-[(Isochroman-1-ylmethyl)-amino]-2-methoxy-pyrimidin-4-yl}-phenyl)-2-methyl-propionic acid], for which the pIC50 is 7.64.
The value for `COc1nc(NCC2CN(C)c3ccccc3O2)cc(-c2cccc(C(C)(C)C(=O)O)c2)n1` (centres unmarked) [Example 92, 2-(3-{2-Methoxy-6-[(4-methyl-3,4-dihydro-2H-benzo[1,4]oxazin-2-ylmethyl)-amino]-pyrimidin-4-yl}-phenyl)-2-methyl-propionic acid] was 6.56.
In the case of `COc1nc(NCCc2ccc(Cl)cc2Cl)cc(-c2ccc3nc(NC(C)=O)sc3c2)n1` [Example 94, N-(6-{6-[2-(2,4-Dichloro-phenyl)-ethylamino]-2-methoxy-pyrimidin-4-yl}-benzothiazol-2-yl)-acetamide], the pIC50 was 7.96.
The value for `COc1nc(NCCc2ccc(Cl)cc2Cl)cc(-c2cccc(C(C)(C)C(=O)NS(=O)(=O)Cc3ccccc3)c2)n1` [Example 95(b), N-[2-(3-{6-[2-(2,4-Dichloro-phenyl)-ethylamino]-2-methoxy-pyrimidin-4-yl}-phenyl)-2-methyl-propionyl]-C-phenyl-methanesulfonamide] was 8.70; that for `COc1nc(NCCc2ccc(Cl)cc2Cl)cc(-c2cccc(C(C)(C)C(=O)N3CCOCC3)c2)n1` [Example 95(c), 2-(3-{6-[2-(2,4-Dichloro-phenyl)-ethylamino]-2-methoxy-pyrimidin-4-yl}-phenyl)-2-methyl-1-morpholin-4-yl-propan-1-one] was 6.55.
As to `COc1nc(NCCc2ccc(Cl)cc2Cl)cc(-c2cccc(C(C)(C)C(=O)NC3CCOCC3)c2)n1` [Example 95(d), 2-(3-{6-[2-(2,4-Dichloro-phenyl)-ethylamino]-2-methoxy-pyrimidin-4-yl}-phenyl)-N-(tetrahydro-pyran-4-yl)-isobutyramide], the pIC50 is 6.56.
For `COc1nc(NCCc2ccc(Cl)cc2Cl)cc(-c2cccc(C(C)(C)C(=O)Nc3nnn[nH]3)c2)n1` [Example 95(e), 2-(3-{6-[2-(2,4-Dichloro-phenyl)-ethylamino]-2-methoxy-pyrimidin-4-yl}-phenyl)-N-(1H-tetrazol-5-yl)-isobutyramide], the pIC50 was greater than 9.00.
As for `COc1nc(NCCc2ccc(Cl)cc2Cl)cc(N2CCCC(c3nn[nH]n3)C2)n1` (centres unmarked) [Example 96, [2-(2,4-Dichloro-phenyl)-ethyl]-{2-methoxy-6-[3-(2H-tetrazol-5-yl)-piperidin-1-yl]-pyrimidin-4-yl}-amine], the figure is 8.30; as for `COc1nc(NCCc2ccc(Cl)cc2Cl)cc(N2CCC(C(=O)O)CC2)n1` [Example 97, 1-{6-[2-(2,4-Dichloro-phenyl)-ethylamino]-2-methoxy-pyrimidin-4-yl}-piperidine-4-carboxylic acid], 8.15.
As for `COc1nc(NCCc2ccc(Cl)cc2Cl)cc(-c2ccc(Cl)c(C(C)(C)O)c2)n1` [Example 98, 2-(2-Chloro-5-{6-[2-(2,4-dichloro-phenyl)-ethylamino]-2-methoxy-pyrimidin-4-yl}-phenyl)-propan-2-ol], the figure is 6.96; as for `COc1nc(NCCc2ccc(Cl)cc2Cl)cc(-c2cc(C(C)(C)C(=O)O)ccc2F)n1` [Example 99, 2-(3-{6-[2-(2,4-Dichloro-phenyl)-ethylamino]-2-methoxy-pyrimidin-4-yl}-4-fluoro-phenyl)-2-methyl-propionic acid hydrochloride], 9.30.
As for `COc1ccc(CCNc2cc(OCc3ccccc3OC)nc(OC)n2)cc1` [Example (48), [2-Methoxy-6-(2-methoxy-benzyloxy)-pyrimidin-4-yl]-[2-(4-methoxy-phenyl)-ethyl]-amine hydrochloride], the figure is 7.92; as for `COC(=O)c1cccc(Oc2cc(NCCc3ccc(OC)c(OC)c3)nc(OC)n2)c1` [Example (63), 3-{6-[2-(3,4-dimethoxy-phenyl)-ethylamino]-2-methoxy-pyrimidin-4-yloxy}-benzoic acid methyl ester], 5.20.
Consider `COc1nc(NCCc2ccc(OC(F)F)cc2)cc(-c2cccc(S(C)(=O)=O)c2)n1` [example 46(d), [2-(4-Difluoromethoxy-phenyl)-ethyl]-[6-(3-methanesulfonyl-phenyl)-2-methoxy-pyrimidin-4-yl]-amine hydrochloride], for which the pIC50 is 7.77.
